From patent publication EP4692089A1, “NITROGEN-CONTAINING HETEROCYCLIC COMPOUND AS AAK1 INHIBITOR” (Alicorn Pharmaceutical Co., Ltd., priority 2023, dated 2024)

Molecular target: T1, AAK1 (30-330) protein (Homo sapiens, UniProt Q2M2I8)
T1 construct: (His)6x (N); TEV protease cleavage site (N); made in house; host or cells: Escherichia coli BL21(DE3)
Assay: CETSA test of binding ability to AAK1 protein (Western blot)
Experimental: Experimental objective: To detect the binding ability of compounds to AAK1 protein by means of a CETSA experiment.
Background principle: The CETSA experiment is a molecular detection means for measuring the affinity between drugs and target proteins. […] When a candidate drug is co-incubated with a target protein, if the candidate drug is an inhibitor of AAK1, it can bind to AAK1. […] On the contrary, the stability of the AAK1 protein after heating will be poorer, and the amount of the detected protein will be lower. In this way, the binding ability of the drug to the target protein can be evaluated, which is used for the screening of AAK1 protein inhibitors.
Expression of AAK1 (30-330) protein: The AAK1 sequence (residues 30-330) was cloned into the pET24N vector with an N-terminal (His)6x tag and a tobacco etch virus (TEV) protease cleavage site. The constructed vector was transformed into Escherichia coli BL21(DE3). When the bacteria were cultured with shaking to reach an OD value of 0.6, 1 mM IPTG was added. […] The bacterial cells were collected and subjected to ultrasonic disruption. The supernatant was obtained by centrifugation, and the protein was purified using Ni-NTA. After dialysis, the concentration and purity of the protein were determined.
CETSA sample preparation: Samples were incubated with candidate drugs, control drugs, and control reagents separately for 30 minutes. Each group of samples was heated at approximately 10 pre-set temperature points. After being returned to room temperature, the samples were centrifuged at 20000 g, and the supernatants were collected. Protein samples were denatured by heating at 100°C for 10 minutes with a sample buffer. After the samples were returned to room temperature, Western blot detection was performed on them; the protein loading amount was controlled at 20 µg. […] The same operations were followed, and Western blot detection was conducted. Protein electrophoresis: The voltage for the stacking gel was set at 60 V, and that for the separating gel was set at 120 V. After electrophoresis, electrotransfer was initiated. Electrotransfer conditions were set at 250 mA for 2 h. Blocking with 5% BSA was performed for 1 h. A specific primary antibody was added, and incubation was carried out overnight at 4°C on a shaker. Washing with TBST was conducted 4 times, with 2.5 minutes each time. A secondary antibody was incubated on a shaker at room temperature for 1 h. Washing with TBST was conducted 4 times, with 2.5 minutes each time. ECL was used for development to detect the expression levels of AAK1 protein in different groups and at each temperature point. Western blot bands were processed and converted using Image J and GraphPad software to calculate EC50.

T1 sequence (Q2M2I8 30-330): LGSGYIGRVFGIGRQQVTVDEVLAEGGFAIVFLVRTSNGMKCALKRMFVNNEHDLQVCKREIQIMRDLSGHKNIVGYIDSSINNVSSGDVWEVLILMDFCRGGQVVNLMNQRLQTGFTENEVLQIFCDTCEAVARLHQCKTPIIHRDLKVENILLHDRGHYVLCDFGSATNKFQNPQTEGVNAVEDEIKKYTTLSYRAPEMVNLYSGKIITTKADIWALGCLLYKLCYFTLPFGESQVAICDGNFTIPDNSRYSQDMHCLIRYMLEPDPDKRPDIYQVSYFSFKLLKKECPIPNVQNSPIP

EC50: 10 to 100 nM
Structure (SMILES): CC(C)C[C@](C)(N)COc1ccc(-c2c[nH]c3ncc(F)cc23)nc1C(F)F [Compound 26, (S)-1-{[2-(difluoromethyl)-6-(5-fluoro-1H-pyrrolo[2,3-b]pyridin-3-yl)pyridin-3-yl]oxy}-2,4-dimethylpentan-2-amine]
